Tests used:
[1] = system: FFRP pot1216151; assay: Gel filtration analysis of changes in assemblies of the FFRP induced by amino acids and metabolic intermediates; format: binding, Pyrococcus sp. OT3; conditions: for gel filtration peak that increased: FFRP monomer approximately 100 μM, at least 30 minutes at room temperature, UV 220 nm; for concluded effect on assembling of the protein: gel filtration
Method: Changes in assemblies of the FFRP pot1216151 induced by interaction with amino acids and metabolic intermediates were analyzed in solution using gel filtration.
Gel filtration was carried out at a flow rate 1 ml/min, using a matrix (Protein Pak 125, 7.8×300 mm, Waters) and a 50 mM Tris-HCl buffer (pH 7.0) containing 300 mM sodium chloride. Flow of the protein was monitored by measuring the UV absorbance at 220 nm (LC Module I plus system, Waters). The FFRP pot1216151 purified by method 2, i.e., the rigorous method, was dissolved in 50 mM Tris-HCl buffer (pH 7.0) containing 200 mM sodium chloride, and kept at −80° C. until it was diluted by 10-fold with a 50 mM Tris-HCl buffer (pH 7.0) containing 300 mM sodium chloride, and mixed with each potential ligand for at least 30 minutes at room temperature (about 25° C.). In the mixture, the monomer concentration of the FFRP was approximately 100 μM.

[2] = system: FFRP (pot1216151); assay: Changes in crystal structure (depolarization) of FFRP crystals soaked in amino acid solutions; format: binding, Pyrococcus sp. OT3; conditions: crystals soaked in solution of one amino acid, 10 mM
Method: It has been known that the regularity inside a crystal might be affected, if the structure of the protein changes upon interaction with a ligand which is incorporated from outside the crystal, thereby depolarizing the crystal. Crystals of the FFRP (pot1216151) were soaked into solutions, each containing one of twenty amino acids at the same concentration 10 mM. […] With the other amino acids, no change was observed.

[3] = target: E. coli Lrp (Escherichia coli, UniProt P0ACJ0); conditions: Marasco et al., 1994; cited from earlier work
Chain of E. coli Lrp (P0ACJ0 2-164): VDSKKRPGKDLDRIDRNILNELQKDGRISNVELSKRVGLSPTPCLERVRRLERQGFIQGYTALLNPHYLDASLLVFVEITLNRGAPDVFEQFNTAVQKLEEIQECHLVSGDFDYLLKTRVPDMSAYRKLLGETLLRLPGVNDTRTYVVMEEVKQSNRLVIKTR

SMILES | gel filtration peak that increased ([1]; metabolic intermediate 10 mM) | concluded effect on assembling of the protein ([1]; metabolic intermediate 10 mM) | change of the FFRP crystal (depolarization) on soaking [2] | gel filtration peak that increased ([1]; amino acid 1 mM) | concluded effect on assembling of the protein ([1]; amino acid 1 mM) | effect of leucine on the FFRP assembly [3]
CC(=O)C(=O)O [pyruvic acid] | no significant effect |  |  |  |  | 
O=C(O)CC(=O)C(=O)O [oxaloacetic acid] | the third peak increased | stabilizing intermediate assemblies |  |  |  | 
CC[C@H](C)[C@H](N)C(=O)O [isoleucine] |  |  | the crystals depolarized after several hours | the second peak increased | accelerates assembling of the protein | 
C[C@@H](O)[C@H](N)C(=O)O [threonine] |  |  |  | the fourth peak increased | accelerate disassembling of the protein | 
O=C(O)C(O)COP(=O)(O)O (stereo not drawn) [3-phosphoglyceric acid] | no significant effect |  |  |  |  | 
N=C(N)NCCC[C@H](N)C(=O)O [arginine] |  |  |  | the fourth peak increased | accelerate disassembling of the protein | 
O=C(O)CC(O)C(=O)O (stereo not drawn) [malic acid] | the third peak increased | stabilizing intermediate assemblies |  |  |  | 
CC(C)[C@H](N)C(=O)O [valine] |  |  | the crystals depolarized after several hours | the third peak increased | stabilizing intermediate assemblies | 
C[C@H](N)C(=O)O [alanine] |  |  |  | the fourth peak increased | accelerate disassembling of the protein | 
CC(C)C[C@H](N)C(=O)O [leucine] |  |  | the crystals depolarized after several hours | the fourth peak increased | accelerate disassembling of the protein | disassembling these FFRPs
N[C@@H](Cc1ccccc1)C(=O)O [phenylalanine] |  |  |  | the fourth peak increased | accelerate disassembling of the protein | 
CSCC[C@H](N)C(=O)O [methionine] |  |  | the crystals depolarized after several hours | the fourth peak increased | accelerate disassembling of the protein | 
